Data published in patent publication US9695155B2, “Herbicidal substituted pyrimidinyloxy benzene compounds” (E. I. DU PONT DE NEMOURS AND COMPANY, priority 2013, dated 2017).

Columns and labels:
large (Lg) crabgrass [1] = experiment: Test A preemergence; assay type: in vivo, Digitaria sanguinalis; settings: for Crabgrass, Large plant response rating (0 to 100 scale): 125 g ai/ha; for Crabgrass, Large plant response rating: 500 g ai/ha, 0 to 100 scale where 0 is no effect and 100 is complete control
Method in brief: (§1)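 Visual 0–100 rating (100 = complete control) taken about 10 d post-treatment relative to untreated checks. Preemergence: directed soil spray on sown loam/sand pots. Postemergence: seedlings 2–10 cm, 1–2 leaf. Non-phytotoxic solvent formulation with surfactant.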

morningglory [2] = experiment: Test A preemergence; assay type: in vivo, Ipomoea spp.; settings: for Morningglory plant response rating (0 to 100 scale): 125 g ai/ha; for Morningglory plant response rating: 500 g ai/ha, 0 to 100 scale where 0 is no effect and 100 is complete control
Method in brief: as §1

morningglory [3] = experiment: Test A postemergence; assay type: in vivo, Ipomoea spp.; settings: 0 to 100 scale where 0 is no effect and 100 is complete control; for Morningglory plant response rating: 125 g ai/ha; for Plant response rating, Morningglory: 500 g ai/ha
Method in brief: as §1

pigweed [4] = experiment: Test A preemergence; assay type: in vivo, Amaranthus retroflexus; settings: for Pigweed plant response rating (0 to 100 scale): 125 g ai/ha; for Pigweed plant response rating: 500 g ai/ha, 0 to 100 scale where 0 is no effect and 100 is complete control
Method in brief: as §1

Heteranthera limosa = experiment: Test B flooded paddy test; assay type: in vivo; settings: Flood, 250 g ai/ha; 0 to 100 scale where 0 is no effect and 100 is complete control
Method in brief: (§2)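 Greenhouse flooded-pot test: compounds dosed into 3 cm standing water over 2-leaf plants, flood held constant. Rated visually after 13–15 days on 0–100 (complete control = 100); a dash marks no test result.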

giant foxtail [5] = experiment: Test A preemergence; assay type: in vivo, Setaria faberii; settings: for Foxtail, Giant plant response rating (0 to 100 scale): 125 g ai/ha; for Foxtail, Giant plant response rating: 500 g ai/ha, 0 to 100 scale where 0 is no effect and 100 is complete control
Method in brief: as §1

large (Lg) crabgrass [6] = experiment: Test A postemergence; assay type: in vivo, Digitaria sanguinalis; settings: 0 to 100 scale where 0 is no effect and 100 is complete control; for Crabgrass, Large plant response rating: 125 g ai/ha; for Plant response rating, Crabgrass, Large: 500 g ai/ha
Method in brief: as §1

corn [7] = experiment: Test A preemergence; assay type: in vivo, Zea mays; settings: for Corn plant response rating (0 to 100 scale): 125 g ai/ha; for Corn plant response rating: 500 g ai/ha, 0 to 100 scale where 0 is no effect and 100 is complete control
Method in brief: as §1

pigweed [8] = experiment: Test A postemergence; assay type: in vivo, Amaranthus retroflexus; settings: 0 to 100 scale where 0 is no effect and 100 is complete control; for Pigweed plant response rating: 125 g ai/ha; for Plant response rating, Pigweed: 500 g ai/ha
Method in brief: as §1

barnyardgrass [9] = experiment: Test A postemergence; assay type: in vivo, Echinochloa crus-galli; settings: 0 to 100 scale where 0 is no effect and 100 is complete control; for Barnyardgrass plant response rating: 125 g ai/ha; for Plant response rating, Barnyardgrass: 500 g ai/ha
Method in brief: as §1

wheat [10] = experiment: Test A postemergence; assay type: in vivo, Triticum aestivum; settings: 0 to 100 scale where 0 is no effect and 100 is complete control; for Wheat plant response rating: 125 g ai/ha; for Plant response rating, Wheat: 500 g ai/ha
Method in brief: as §1

giant foxtail [11] = experiment: Test A postemergence; assay type: in vivo, Setaria faberii; settings: 0 to 100 scale where 0 is no effect and 100 is complete control; for Foxtail, Giant plant response rating: 125 g ai/ha; for Plant response rating, Foxtail, Giant: 500 g ai/ha
Method in brief: as §1

barnyardgrass [12] = experiment: Test B flooded paddy test; assay type: in vivo, Echinochloa crus-galli; settings: Flood, 250 g ai/ha; 0 to 100 scale where 0 is no effect and 100 is complete control
Method in brief: as §2

velvetleaf [13] = experiment: Test A postemergence; assay type: in vivo, Abutilon theophrasti; settings: 0 to 100 scale where 0 is no effect and 100 is complete control; for Velvetleaf plant response rating: 125 g ai/ha; for Plant response rating, Velvetleaf: 500 g ai/ha
Method in brief: as §1

sedge, umbrella = experiment: Test B flooded paddy test; assay type: in vivo, Cyperus difformis; settings: Flood, 250 g ai/ha; 0 to 100 scale where 0 is no effect and 100 is complete control
Method in brief: as §2

corn [14] = experiment: Test A postemergence; assay type: in vivo, Zea mays; settings: 0 to 100 scale where 0 is no effect and 100 is complete control; for Corn plant response rating: 125 g ai/ha; for Plant response rating, Corn: 500 g ai/ha
Method in brief: as §1

velvetleaf [15] = experiment: Test A preemergence; assay type: in vivo, Abutilon theophrasti; settings: for Velvetleaf plant response rating (0 to 100 scale): 125 g ai/ha; for Velvetleaf plant response rating: 500 g ai/ha, 0 to 100 scale where 0 is no effect and 100 is complete control
Method in brief: as §1

barnyardgrass [16] = experiment: Test A preemergence; assay type: in vivo, Echinochloa crus-galli; settings: for Barnyardgrass plant response rating (0 to 100 scale, 0 is no effect, 100 is complete control): 125 g ai/ha; for Barnyardgrass plant response rating: 500 g ai/ha, 0 to 100 scale where 0 is no effect and 100 is complete control
Method in brief: as §1

wheat [17] = experiment: Test A preemergence; assay type: in vivo, Triticum aestivum; settings: for Wheat plant response rating (0 to 100 scale): 125 g ai/ha; for Wheat plant response rating: 500 g ai/ha, 0 to 100 scale where 0 is no effect and 100 is complete control
Method in brief: as §1

rice = experiment: Test B flooded paddy test; assay type: in vivo, Oryza sativa; settings: Flood, 250 g ai/ha; 0 to 100 scale where 0 is no effect and 100 is complete control
Method in brief: as §2

SMILES | Crabgrass, Large plant response rating (large (Lg) crabgrass [1]) | Morningglory plant response rating (0 to 100 scale) (morningglory [2]) | Morningglory plant response rating (morningglory [2]) | Morningglory plant response rating (morningglory [3]) | Plant response rating, Morningglory (morningglory [3]) | Pigweed plant response rating (0 to 100 scale) (pigweed [4]) | Pigweed plant response rating (pigweed [4]) | Plant response rating, Ducksalad (Heteranthera limosa) | Foxtail, Giant plant response rating (0 to 100 scale) (giant foxtail [5]) | Foxtail, Giant plant response rating (giant foxtail [5]) | Crabgrass, Large plant response rating (large (Lg) crabgrass [6]) | Plant response rating, Crabgrass, Large (large (Lg) crabgrass [6]) | Corn plant response rating (0 to 100 scale) (corn [7]) | Corn plant response rating (corn [7]) | Pigweed plant response rating (pigweed [8]) | Plant response rating, Pigweed (pigweed [8]) | Barnyardgrass plant response rating (barnyardgrass [9]) | Plant response rating, Barnyardgrass (barnyardgrass [9]) | Wheat plant response rating (wheat [10]) | Plant response rating, Wheat (wheat [10]) | also measured
CC#Cc1cnn(-c2ccccc2Oc2ncc(Cl)cn2)c1 [Compound 189] | 100 | 0 | 30 | 50 | 100 | 100 | 100 | 70 | 70 | 100 | 30 | 80 | 0 | 0 | 100 | 100 | 10 | 90 | 20 | 50 | Crabgrass, Large plant response rating (0 to 100 scale) (large (Lg) crabgrass [1]): 90; Foxtail, Giant plant response rating (giant foxtail [11]): 40; Plant response rating, Foxtail, Giant (giant foxtail [11]): 80; Plant response rating, Barnyardgrass (barnyardgrass [12]): 0; Velvetleaf plant response rating (velvetleaf [13]): 90; Plant response rating, Velvetleaf (velvetleaf [13]): 100; Plant response rating, Sedge, Umbrella (sedge, umbrella): 70; Corn plant response rating (corn [14]): 10; Plant response rating, Corn (corn [14]): 40; Velvetleaf plant response rating (0 to 100 scale) (velvetleaf [15]): 60; Velvetleaf plant response rating (velvetleaf [15]): 80; Barnyardgrass plant response rating (0 to 100 scale, 0 is no effect, 100 is complete control) (barnyardgrass [16]): 20; Barnyardgrass plant response rating (barnyardgrass [16]): 90; Wheat plant response rating (0 to 100 scale) (wheat [17]): 0; Wheat plant response rating (wheat [17]): 10; Plant response rating, Rice (rice): 0
Clc1cnc(Oc2cccc(-c3ccccc3)c2-n2cc(Br)cn2)nc1 [Compound 195] | 70 | 0 | 10 | 30 | 70 | 0 | 40 | 20 | 10 | 80 | 40 | 60 | 0 | 0 | 60 | 80 | 0 | 20 | 0 | 0 | Foxtail, Giant plant response rating (giant foxtail [11]): 10; Plant response rating, Foxtail, Giant (giant foxtail [11]): 50; Plant response rating, Barnyardgrass (barnyardgrass [12]): 0; Velvetleaf plant response rating (velvetleaf [13]): 50; Plant response rating, Velvetleaf (velvetleaf [13]): 100; Plant response rating, Sedge, Umbrella (sedge, umbrella): 30; Corn plant response rating (corn [14]): 0; Plant response rating, Corn (corn [14]): 20; Velvetleaf plant response rating (0 to 100 scale) (velvetleaf [15]): 0; Velvetleaf plant response rating (velvetleaf [15]): 20; Barnyardgrass plant response rating (0 to 100 scale, 0 is no effect, 100 is complete control) (barnyardgrass [16]): 0; Barnyardgrass plant response rating (barnyardgrass [16]): 0; Wheat plant response rating (0 to 100 scale) (wheat [17]): 0; Wheat plant response rating (wheat [17]): 0; Plant response rating, Rice (rice): 20
C=C(C)c1cccc(Oc2ncc(Cl)cn2)c1-n1cc(Br)cn1 [Compound 198] | 100 | 0 | 10 | 60 | 70 | 100 | 100 | 25 | 70 | 100 | 60 | 90 | 0 | 0 | 90 | 100 | 30 | 50 | 0 | 10 | Crabgrass, Large plant response rating (0 to 100 scale) (large (Lg) crabgrass [1]): 80; Foxtail, Giant plant response rating (giant foxtail [11]): 30; Plant response rating, Foxtail, Giant (giant foxtail [11]): 80; Plant response rating, Barnyardgrass (barnyardgrass [12]): 0; Velvetleaf plant response rating (velvetleaf [13]): 90; Plant response rating, Velvetleaf (velvetleaf [13]): 100; Plant response rating, Sedge, Umbrella (sedge, umbrella): 20; Corn plant response rating (corn [14]): 20; Plant response rating, Corn (corn [14]): 20; Velvetleaf plant response rating (0 to 100 scale) (velvetleaf [15]): 40; Velvetleaf plant response rating (velvetleaf [15]): 80; Barnyardgrass plant response rating (0 to 100 scale, 0 is no effect, 100 is complete control) (barnyardgrass [16]): 50; Barnyardgrass plant response rating (barnyardgrass [16]): 80; Wheat plant response rating (0 to 100 scale) (wheat [17]): 0; Wheat plant response rating (wheat [17]): 0; Plant response rating, Rice (rice): 0
COc1ccc(Br)c(-n2cc(Br)cn2)c1Oc1ncc(Cl)cn1 [Compound 201] | 40 | 0 | 0 | 20 | 20 | 0 | 0 | 40 | 20 | 50 | 0 | 30 | 0 | 0 | 20 | 40 | 0 | 10 | 0 | 0 | Crabgrass, Large plant response rating (0 to 100 scale) (large (Lg) crabgrass [1]): 20; Foxtail, Giant plant response rating (giant foxtail [11]): 0; Plant response rating, Foxtail, Giant (giant foxtail [11]): 40; Plant response rating, Barnyardgrass (barnyardgrass [12]): 0; Velvetleaf plant response rating (velvetleaf [13]): 30; Plant response rating, Velvetleaf (velvetleaf [13]): 70; Plant response rating, Sedge, Umbrella (sedge, umbrella): 20; Corn plant response rating (corn [14]): 0; Plant response rating, Corn (corn [14]): 0; Velvetleaf plant response rating (0 to 100 scale) (velvetleaf [15]): 0; Velvetleaf plant response rating (velvetleaf [15]): 0; Barnyardgrass plant response rating (0 to 100 scale, 0 is no effect, 100 is complete control) (barnyardgrass [16]): 0; Barnyardgrass plant response rating (barnyardgrass [16]): 0; Wheat plant response rating (0 to 100 scale) (wheat [17]): 0; Wheat plant response rating (wheat [17]): 0; Plant response rating, Rice (rice): 0
